# Data taken from ChEMBL document CHEMBL5244272 (Eur J Med Chem, 2021).
# Tests used:
# Plasmodium falciparum [1] = assay: Antimalarial activity against late blood stage Plasmodium falciparum NF54 gametocytes; type: functional, organism-based
# Plasmodium falciparum [2] = assay: Antimalarial activity against Plasmodium falciparum 3D7; type: functional, organism-based
# Plasmodium berghei [3] = assay: Antimalarial activity against Plasmodium berghei ANKA infected in po dosed mouse; type: functional; details: Plasmodium berghei, ANKA
# Plasmodium falciparum [4] = assay: Antimalarial activity against chloroquine-sensitive Plasmodium falciparum NF54; type: functional, organism-based
# Plasmodium falciparum [5] = assay: Antimalarial activity against Plasmodium falciparum D10; type: functional, organism-based
# Plasmodium falciparum [6] = assay: Antimalarial activity against Plasmodium falciparum K1; type: functional, organism-based
# Plasmodium berghei [7] = assay: Antimalarial activity against Plasmodium berghei K173 infected in mouse; type: functional
# Plasmodium berghei [8] = assay: Antimalarial activity against Plasmodium berghei infected in sc dosed mouse; type: functional
# Plasmodium falciparum [9] = assay: Antimalarial activity against Plasmodium falciparum Dd2; type: functional, organism-based
# Plasmodium falciparum [10] = assay: Antimalarial activity against Plasmodium falciparum NF54; type: functional, organism-based
# Plasmodium falciparum [11] = assay: Antimalarial activity against chloroquine-sensitive Plasmodium falciparum HB3; type: functional, organism-based
# Plasmodium falciparum [12] = assay: Antimalarial activity against chloroquine-resistant Plasmodium falciparum K1; type: functional, organism-based
# Plasmodium falciparum [13] = assay: Antimalarial activity against Plasmodium falciparum RKL9; type: functional, organism-based
# Plasmodium falciparum [14] = assay: Antimalarial activity against ART-resistant Plasmodium falciparum harboring R539T mutant assessed as increase in survival at 700 nM; type: functional
# Plasmodium falciparum [15] = assay: Potency index, ratio of artemisinin IC50 to test compound IC50 for Plasmodium falciparum W2; type: functional
# Plasmodium falciparum [16] = assay: Potency index, ratio of artemisinin IC50 to test compound IC50 for Plasmodium falciparum D6; type: functional
# Plasmodium berghei [17] = assay: Antimalarial activity against Plasmodium berghei infected in po dosed mouse; type: functional
# Plasmodium falciparum [18] = assay: Antimalarial activity against chloroquine sensitive Plasmodium falciparum FCR-3; type: functional, organism-based
# Plasmodium berghei [19] = assay: Antimalarial activity against Plasmodium berghei infected in mouse; type: functional; details: Plasmodium berghei
# Plasmodium yoelii = assay: Antimalarial activity against Plasmodium yoelii infected in mouse; type: functional
compound,measurement,setting,value
C[C@H]1[C@H](NS(=O)(=O)N2CCN(c3ccccn3)CC2)O[C@@H]2O[C@]3(C)CC[C@H]4[C@H](C)CC[C@@H]1[C@@]24OO3,IC50,Plasmodium falciparum [1],0.04 nM
CN1CCN(C2CCN(C(=O)CC3CCC4(CC3)OOC3(OO4)C4CC5CC(C4)CC3C5)CC2)CC1 (stereo not drawn),IC50,Plasmodium falciparum [2],0.8 nM
same,ED90,Plasmodium berghei [3],4.18 mg/kg
same,ED50,Plasmodium berghei [3]; read-out: ED50,1.33 mg/kg
C[C@H]1[C@H](OC(=O)c2ccc([N+](=O)[O-])cc2)O[C@@H]2O[C@@]3(C)CC[C@H]4[C@H](C)CC[C@@H]1[C@@]24OO3,IC50,Plasmodium falciparum [4],8.54 nM
C[C@H]1[C@@H](OCc2ccc(C(=O)N(CCNc3ccnc4cc(Cl)ccc34)CC(=O)NC3CCCCC3)cc2)O[C@@H]2O[C@]3(C)CC[C@H]4[C@H](C)CC[C@@H]1[C@@]24OO3,IC50,Plasmodium falciparum [5],26 nM
same,IC50,Plasmodium falciparum [6],23 nM
C[C@@H]1CC[C@H]2[C@@H](C)C(Nc3cccc(Cl)c3)O[C@@H]3O[C@]4(C)CC[C@@H]1[C@]32OO4 (stereo partly drawn),SD50,Plasmodium berghei [7],1.62 mg/kg/day
CCCCCC[C@H]1C(=O)O[C@@H]2O[C@]3(C)CC[C@H]4[C@H](C)CC[C@@H]1[C@@]24OO3,IC100,Plasmodium berghei [8],8 mg/kg/day
C[C@H]1[C@H](N2CCN(C(=O)Nc3ccc(F)cc3)CC2)O[C@@H]2O[C@]3(C)CC[C@H]4[C@H](C)CC[C@@H]1[C@@]24OO3,IC50,Plasmodium falciparum [9],9.2 nM
same,IC50,Plasmodium falciparum [10],1.21 nM
same,IC50,Plasmodium falciparum [6],0.85 nM
C[C@H]1[C@@H](OCc2ccc(CN3CCCC3)cc2)O[C@@H]2O[C@]3(C)CC[C@H]4[C@H](C)CC[C@@H]1[C@@]24OO3,IC50,Plasmodium falciparum [11],2.3 nM
same,IC50,Plasmodium falciparum [12],2.3 nM
C[C@H]1[C@H](N2CCN(C(=O)c3ccc(C(F)(F)F)cc3)CC2)O[C@@H]2O[C@]3(C)CC[C@H]4[C@H](C)CC[C@@H]1[C@@]24OO3,IC50,Plasmodium falciparum [9],13.2 nM
same,IC50,Plasmodium falciparum [10],0.49 nM
same,IC50,Plasmodium falciparum [6],3.5 nM
CCN(Cc1cc(C2(C)OOC(c3c[nH]c4ccccc34)OO2)ccc1O)c1ccccc1 (stereo not drawn),IC50,Plasmodium falciparum [13],8.19 µg/mL
c1cc([C@H]2CC[C@]3(CC2)OOC2(O3)C3CC4CC(C3)CC2C4)ccc1OCCC1CCNCC1 (stereo partly drawn),Activity,Plasmodium falciparum [14],<0.01%
C[C@@H]1CC[C@H]2[C@@H](C)C(Nc3ccc(C(=O)O)cc3)O[C@@H]3O[C@]4(C)CC[C@@H]1[C@]32OO4 (stereo partly drawn),SD50,Plasmodium berghei [7],1.36 mg/kg/day
C[C@@H]1CC[C@H]2[C@@H](C)C(=O)N(/C=C\C#N)[C@@H]3O[C@H]4CC[C@@H]1[C@@]23OO4,Ratio IC50,Plasmodium falciparum [15],1.7
same,Ratio IC50,Plasmodium falciparum [16],2.7
Cc1ccc([C@@H]2O[C@@H]3O[C@]4(C)CC[C@H]5[C@H](C)CC[C@@H]([C@H]2C)[C@@]35OO4)o1,ED50,Plasmodium berghei [8]; Plasmodium berghei,0.9 mg/kg
C[C@H]1[C@H](N2CCN(S(=O)(=O)c3cccc(C(F)(F)F)c3)CC2)O[C@@H]2O[C@]3(C)CC[C@H]4[C@H](C)CC[C@@H]1[C@@]24OO3,IC50,Plasmodium falciparum [1],0.4 nM
CCO[C@H]1O[C@@H]2O[C@]3(C)CC[C@H]4[C@H](C)CC[C@@H]([C@H]1C)[C@@]24OO3,ED90,Plasmodium berghei [17],6 mg/kg
C[C@H]1[C@H](n2cc(-c3ccc(F)cc3)nn2)O[C@@H]2O[C@]3(C)CC[C@H]4[C@H](C)CC[C@@H]1[C@@]24OO3,IC50,Plasmodium falciparum [18],1.4 nM
C[C@H]1[C@@H](CCOCc2ccccc2F)O[C@@H]2O[C@]3(C)CC[C@H]4[C@H](C)CC[C@@H]1[C@@]24OO3,ED50,Plasmodium berghei [19],5.08 mg/kg
CC1(C)CC(O)(COc2ccc([C@H]3CC[C@]4(CC3)OOC3(O4)C4CC5CC(C4)CC3C5)cc2)CC(C)(C)N1 (stereo partly drawn),Activity,Plasmodium falciparum [14],<0.01%
CC1(c2ccccc2)OOC(c2ccccc2)(c2ccccc2)OO1,IC50,Plasmodium falciparum [13],3.91 µg/mL
C[C@H]1[C@H](n2cc(-c3ccccc3C(F)(F)F)nn2)O[C@@H]2O[C@]3(C)CC[C@H]4[C@H](C)CC[C@@H]1[C@@]24OO3,IC50,Plasmodium falciparum [18],4.6 nM
C[C@H]1[C@@H](CCN2CCN(c3cccc(C(F)(F)F)c3)CC2)O[C@@H]2O[C@]3(C)CC[C@H]4[C@H](C)CC[C@@H]1[C@@]24OO3,ED90,Plasmodium yoelii,< 10 mg/kg
C[C@H]1[C@@H](OCc2ccc(C(=O)N(CCNc3ccnc4cc(Cl)ccc34)CC(=O)NC(C)(C)C)cc2)O[C@@H]2O[C@]3(C)CC[C@H]4[C@H](C)CC[C@@H]1[C@@]24OO3,IC50,Plasmodium falciparum [5],27 nM
same,IC50,Plasmodium falciparum [6],19 nM
CC1CC2CCC(C1)[C@@](C)(/C=C/[C@H](O)C(C)(C)O)OO2 (stereo partly drawn),ED50,Plasmodium yoelii,50 mg/kg
same,IC50,Plasmodium falciparum [6],115 nM
C[C@@H]1CC[C@H]2[C@@H](C)C(Nc3ccc(Cl)cc3)O[C@@H]3O[C@]4(C)CC[C@@H]1[C@]32OO4 (stereo partly drawn),SD50,Plasmodium berghei [7],1.77 mg/kg/day
CC1(OCc2ccccc2)CCC2CC1OO[C@]2(/C=C\c1ccc(F)cc1)c1ccccc1 (stereo partly drawn),IC50,Plasmodium falciparum [12],29 nM
COC(=O)CC[C@@H](C)[C@H]1CC[C@H]2[C@@H]3CC[C@@H]4CC5(CC[C@]4(C)[C@H]3C[C@H](OC(C)=O)[C@]12C)OOC(C)(C(F)(F)F)O5 (stereo partly drawn),IC50,Plasmodium falciparum [12],> 231 nM
